The subject of series [1] is Plasmodium falciparum (NF54). As to the kind of experiment: In vitro antimalarial activity, [3H]hypoxanthine incorporation into chloroquine-sensitive P. falciparum (NF 54). It is filed as cell-based. Here is the method:
the protozoan Plasmodium falciparum is a causative agent of malaria. The antimalarial activity of 2,3-dioxabicyclo[3.3.1]nonanes of type A was determined by measuring the incorporation of [^3 H]hypoxanthine, by the methods of Desjardins^9 and Milhous,^10 into […] Plasmodium falciparum (NF54)^11 in the presence of varying drug concentrations. Dose-response response curves that were fit to the experimental data by means of the Marquardt algorithm^12 were solved for the drug concentration that kills 50% of parasites (IC50), and were analyzed for accuracy of fit (R^2 value, typically ≥0.99). Provisional IC50 values were obtained in a survey of seven 5-fold dilutions (in triplicate) of stock solutions of chromatographically-purified or recrystalized test compound. Assay were later expanded to include ten concentrations (in quadruplicate) of ~1.8-fold dilutions, which flank the provisional IC50.
Tables 1-3 present tabulations of a number of compounds that have been synthesized along with the IC50 (in nM).

Series [2] deals with Plasmodium yoelii (ssp. NS). As to the kind of experiment: In vivo antimalarial activity against chloroquine-resistant Plasmodium yoelii (ssp. NS), four-day test in mice. The following applies: sc, P. yoelii (ssp. NS), subcutaneous, daily dose, fourday test. Here is the method: (§1) Based on the in vitro antimalarial activity of compounds of type A, the in vivo antimalarial activity of two representatives, namely of compounds 23a and 34a, were tested.
(§2) *ED50 and ED90 are given as the daily dose in mg/Kg, repeated
(§3) every 4 days. Substances were administered to mice subcutaneously and
(§4) tested by the fourday test.^14,15

For series [3], the system named is Plasmodium berghei (N strain). In words: In vivo antimalarial activity against chloroquine-sensitive Plasmodium berghei (N strain), four-day test in mice. The following applies: sc, P. berghei (N strain), subcutaneous, daily dose, fourday test. Here is the method: as §1, §2, §3, §4
For series [4] the following is noted: rats, high doses; cited from earlier work.
Series [5] has as its system Plasmodium yoelii (ssp. NS). Further details: ED90: unit not given beside the values; ED50: unit not given here. The following applies: against P. yoelii; cited from earlier work.
Series [6] has as its system Plasmodium falciparum (NF54). The following applies: recorded under the same conditions; cited from earlier work.
The subject of series [7] is Plasmodium berghei (N strain). Also noted: ED90: unit not given beside the values; ED50: unit not given here. The following applies: against P. berghei; cited from earlier work.
The subject of series [8] is mouse neuroblastoma cells. The following applies: cited from earlier work.
Setting [9] is: Plasmodium falciparum, NF54, Survey data (provisional; seven 5-fold dilutions in triplicate).
Where [10] appears, read: Plasmodium falciparum, NF54, Expansion data (ten concentrations, quadruplicate, ~1.8-fold dilutions).

Like-named read-outs stand apart in the source and are kept apart here.

In the case of `C[C@]1(CSc2ccccc2)OOC2C[C@@H]1C[C@H](OC(=O)c1ccccc1)[C@]2(C)O` (stereo in doubt) [Compound 4a, (1R,4S,5S,7S,8S)-7-benzoyloxy-4,8-dimethyl-4-phenylthiomethyl-2,3-dioxabicyclo[3.3.1]nonan-8-ol], the IC50 in series [1] (setting [9]) worked out at 110 nM.
`C[C@@]1(O)CC[C@@H]2C[C@H]1OO[C@@]2(C)CS(=O)(=O)c1ccccc1` [Compound 21a, (1R,4R,5R,8R)-4,8-dimethyl-4-phenylsulfonylmethyl-2,3-dioxabicyclo [3.3.1]nonan-8-ol] returned an IC50 in series [1] (setting [10]) of 55 nM.
The compound `C[C@]1(CS(=O)(=O)c2ccccc2)OO[C@@H]2C[C@H]1CC[C@@]2(C)O` [Compound 21b, (1R,4S,5R,8R)-4,8-dimethyl-4-phenylsulfonylmethyl-2,3-dioxabicyclo[3.3.1]nonan-8-ol] registered a 50% inhibitory concentration (IC50) in series [1] (setting [10]) of 89 nM.
Still for that read-out and setting: for `C[C@H]1CC[C@@H]2C[C@H]1OO[C@@]2(C)CS(=O)(=O)c1ccccc1` [Compound 22a, (1R,4R,5R,8S)-4,8-dimethyl-4-phenylsulfonylmethyl-2,3-dioxabicyclo [3.3.1]nonane] the value was 17 nM.
For the compound `C[C@H]1CC[C@@H]2C[C@H]1OO[C@]2(C)CS(=O)(=O)c1ccccc1` [Compound 22b, (1R,4S,5R,8S)-4,8-dimethyl-4-phenylsulfonylmethyl-2,3-dioxabicyclo[3.3.1]nonane], the IC50 in series [1] (setting [10]) is 24 nM.
For `CC(=O)O[C@]1(C)CC[C@@H]2C[C@H]1OO[C@@]2(C)CS(=O)(=O)c1ccccc1` [Compound 23a, (1R,4R,5R,8R)-8-acetoxy-4,8-dimethyl-4-phenylsulfonylmethyl-2,3-dioxabicyclo [3.3.1]nonane], in series [2], the ED50 was determined as 12.5 mg/kg and the ED90 came out at 28 mg/kg/day. In series [1] (setting [10]), this compound had a 50% inhibitory concentration (IC50) of 17 nM. In series [3], the ED50 came to 3.7 mg/kg and the ED90 amounted to 7.3 mg/kg/day.
As for `CC(=O)O[C@]1(C)CC[C@@H]2C[C@H]1OO[C@]2(C)CS(=O)(=O)c1ccccc1` [Compound 23b, (1R,4S,5R,8R)-8-acetoxy-4,8-dimethyl-4-phenylsulfonylmethyl-2,3-dioxabicyclo[3.3.1]nonane], inhibition in series [1] (setting [10]) was half-maximal at 17 nM (IC50).
For the compound `CC(=O)CC(=O)O[C@]1(C)CC[C@@H]2C[C@H]1OO[C@@]2(C)CS(=O)(=O)c1ccccc1` [Compound 24a, (1R,4R,5R,8R)-8-acetylacetoxy-4,8-dimethyl-4-phenylsulfonylmethyl-2,3-dioxabicyclo[3.3.1]nonane], the IC50 in series [1] (setting [10]) was determined as 46 nM.
For `CC(=O)CC(=O)O[C@]1(C)CC[C@@H]2C[C@H]1OO[C@]2(C)CS(=O)(=O)c1ccccc1` [Compound 24b, (1R,4S,5R,8R)-8-acetylacetoxy-4,8-dimethyl-4-phenylsulfonylmethyl-2,3-dioxabicyclo [3.3.1]nonane], in series [1] (setting [10]), 73 nM corresponded to half-maximal inhibition (IC50).
Same read-out and setting: for `CCOC(=O)C(=O)O[C@]1(C)CC[C@@H]2C[C@H]1OO[C@@]2(C)CS(=O)(=O)c1ccccc1` [Compound 25a, (1R,4R,5R,8R)-8-ethoxyoxyalyloxy-4,8-dimethyl-4-phenylsulfonylmethyl-2,3-dioxabicyclo [3.3.1]nonane] the value was 170 nM; for `CCOC(=O)C(=O)O[C@]1(C)CC[C@@H]2C[C@H]1OO[C@]2(C)CS(=O)(=O)c1ccccc1` [Compound 25b, (1R,4S,5R,8R)-8-ethoxyoxalyloxy-4,8-dimethyl-4-phenylsulfonylmethyl-2,3-dioxabicyclo [3.3.1]nonane], 140 nM.
In series [1] (setting [10]), `C[C@@]1(OC(=O)C(=O)N(Cc2ccccc2)Cc2ccccc2)CC[C@@H]2C[C@H]1OO[C@@]2(C)CS(=O)(=O)c1ccccc1` [Compound 26a, (1R,4R,5R,8R)-8-dibenzylaminooxalyloxy-4,8-dimethyl-4-phenylsulfonylmethyl-2,3-dioxabicyclo[3.3.1]nonane] gave an IC50 of 21 nM.
`C[C@]1(CS(=O)(=O)c2ccccc2)OO[C@@H]2C[C@H]1CC[C@@]2(C)OC(=O)C(=O)N(Cc1ccccc1)Cc1ccccc1` [Compound 26b, (1R,4S,5R,8R)-dibenzylaminooxalyloxy-4,8-dimethyl-4-phenylsulfonylmethyl-2,3-dioxabicyclo[3.3.1]nonane]: 81 nM corresponded to half-maximal inhibition in series [1] (setting [10]) (IC50).
The compound `C[C@@]1(OC(=O)Oc2ccccc2)CC[C@@H]2C[C@H]1OO[C@@]2(C)CS(=O)(=O)c1ccccc1` [Compound 27a, (1R,4R,5R,8R)-4,8-dimethyl-8-phenoxycarbonyloxy-4-phenylsulfonylmethyl-2,3-dioxabicyclo[3.3.1]nonane] displayed a 50% inhibitory concentration (IC50) in series [1] (setting [10]) of 47 nM.
Turning to `C[C@]1(CS(=O)(=O)c2ccccc2)OO[C@@H]2C[C@H]1CC[C@@]2(C)OC(=O)Oc1ccccc1` [Compound 27b, (1R,4S, 5R,8R)-4,8-dimethyl-8-phenoxycarbonyloxy-4-phenylsulfonylmethyl-2,3-dioxabicyclo[3.3.1]nonane], the IC50 in series [1] (setting [10]) worked out at 150 nM.
As to `C[C@@]1(O)[C@@H]2C[C@H](C[C@@H]1OC(=O)c1ccccc1)[C@@](C)(CS(=O)(=O)c1ccccc1)OO2` [Compound 29a, (1S,4S,5S,7S,8S)-7-benzoyloxy-4,8-dimethyl-4-phenylsulfonylmethyl-2,3-dioxabicyclo[3.3.1]nonan-8-ol], the IC50 in series [1] (setting [9]) was determined as 250 nM.
Still for that read-out and setting: in the case of `CCCCS(=O)(=O)C[C@@]1(C)OO[C@H]2C[C@@H]1C[C@H](OC(=O)c1ccccc1)[C@]2(C)O` [Compound 30a, (1S,4S,5S,7S,8S)-7-benzoyloxy-4-n-butylsulfonylmethyl-4,8-dimethyl-2,3-dioxabicyclo[3.3.1]nonan-8-ol] it was 300 nM.
In series [2], `COc1ccc(CO[C@]2(C)CC[C@@H]3C[C@H]2OO[C@@]3(C)CS(=O)(=O)c2ccccc2)cc1` [Compound 34a, (1R,4R,5R,8R)-4,8-dimethyl-8-(p-methoxybenzyloxy)-4-phenylsulfonylmethyl-2,3-dioxabicyclo[3.3.1]nonane] gave an ED50 of 4.8 mg/kg and an ED90 of 8.3 mg/kg/day. In series [1] (setting [10]), this compound had a 50% inhibitory concentration (IC50) of 14 nM. In addition, in series [3], the ED50 came to 1.3 mg/kg and the ED90 was 2.3 mg/kg/day.
In series [1] (setting [10]), `CC(C)=CCO[C@]1(C)CC[C@@H]2C[C@H]1OO[C@@]2(C)CS(=O)(=O)c1ccccc1` [Compound 35a, (1R,4R,5R,8R)-4,8-dimethyl-8-(γ,γ-dimethylallyloxy)-4-phenylsulfonylmethyl-2,3dioxabicyclo[3.3.1]nonane] displayed an IC50 of 35 nM.
As for `C[C@@]1(OC/C=C/c2ccccc2)CC[C@@H]2C[C@H]1OO[C@@]2(C)CS(=O)(=O)c1ccccc1` [Compound 36a, (1R,4R,5R,8R)-8-(trans-cinnamyloxy)-4,8-dimethyl-4-phenylsulfonylmethyl-2,3-dioxabicyclo[3.3.1]nonane], in series [1] (setting [10]), 32 nM corresponded to half-maximal inhibition (IC50).
In turn, `CC1=CC[C@@H]2C[C@H]1OO[C@@]2(C)CS(=O)(=O)c1ccccc1` [Compound 37a, (1R,4R,5R)-4,8-dimethyl-4-phenylsulfonylmethyl-2,3-dioxabicyclo[3.3.1]non-7-ene] had an IC50 in series [1] (setting [9]) of 490 nM.
`C[C@@]12O[C@@H]1C[C@@H]1C[C@H]2OO[C@@]1(C)CS(=O)(=O)c1ccccc1` [Compound 39a, (1R,4R,5R,7R,8R)-7,8-epoxy-4,8-dimethyl-4-phenylsulfonylmethyl-2,3-dioxabicyclo[3.3.1]nonane] showed an IC50 in series [1] (setting [10]) of 92 nM.
`CC(=O)O[C@]1(C)CC[C@@H]2C[C@H]1OO[C@@]2(C)C[S+]([O-])c1ccccc1` (stereo partly drawn) [Compound 41a, (1R,4R,5R,8R)-8-acetoxy-4,8-dimethyl-4-phenylsulfinylmethyl-2,3-dioxabicyclo[3.3.1]nonanes]: the IC50 is 40 nM in series [1] (Expansion data (ten concentrations, quadruplicate, ~1.8-fold dilutions)) and 14 nM in series [1] (Expansion data (ten concentrations, quadruplicate, ~1.8-fold dilutions), listed as 41a').
Turning to `CC(=O)O[C@]1(C)CC[C@@H]2C[C@H]1OO[C@]2(C)C[S+]([O-])c1ccccc1` (stereo partly drawn) [Compound 41b, (1R,4S,5R,8R)-8-acetoxy-4,8-dimethyl-4-phenylsulfinylmethyl-2,3-dioxabicyclo[3.3.1]nonanes], the IC50 in series [1] (setting [10]) was determined as 71 nM.
Take `CO[C@H]1O[C@@H]2O[C@@]3(C)CC[C@H]4[C@H](C)CC[C@@H]([C@H]1C)[C@@]24OO3` [artemether]: in series [4], the neurotoxicity entry was “neurotoxicity has been seen”.
Consider `C[C@@H]1CC[C@H]2[C@@H](C)C(=O)O[C@@H]3O[C@@]4(C)CC[C@@H]1[C@]32OO4` [artemisinin], for which, in series [5], the ED50 is on record as 5.8 and the ED90 was 10.0. Further, the IC50 in series [6] is 11 nM. In addition, in series [7], the ED50 was 0.95 and the ED90 is reported as 2.5.
Take `C[C@@H]1CC[C@H]2[C@@H](C)C(O)O[C@@H]3O[C@@]4(C)CC[C@@H]1[C@]32OO4` (stereo partly shown) [dihydroarte-mesinin]: the neurotoxicity result in series [8] is listed as “neurotoxicity has been seen”.

A word on the IC50: it is the midpoint of a concentration-inhibition curve.

The values above are taken from patent US6166065A, “2,3-dioxabicyclo[3.3.1]nonane derivatives and antimalarial pharmaceutical compositions comprising them” (Yeda Research and Development Co., Ltd., priority 1997, dated 2000).
